In article doi:10.1101/2024.06.17.599194v1 (biorxiv, 2024):

T1: A. baumannii IspE (AbIspE) (Acinetobacter baumannii, UniProt B2HUM5)
T1 sequence (B2HUM5 1-277): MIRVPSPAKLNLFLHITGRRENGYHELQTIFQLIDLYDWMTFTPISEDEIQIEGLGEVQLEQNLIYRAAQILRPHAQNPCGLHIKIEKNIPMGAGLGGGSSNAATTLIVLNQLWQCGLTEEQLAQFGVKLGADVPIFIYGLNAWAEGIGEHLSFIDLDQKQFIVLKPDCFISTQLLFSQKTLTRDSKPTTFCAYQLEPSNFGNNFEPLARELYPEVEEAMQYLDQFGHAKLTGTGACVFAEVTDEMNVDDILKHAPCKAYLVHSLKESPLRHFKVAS

T2: E. coli IspE (EcIspE) (Escherichia coli, UniProt P62615)
T2 sequence (P62615 1-283): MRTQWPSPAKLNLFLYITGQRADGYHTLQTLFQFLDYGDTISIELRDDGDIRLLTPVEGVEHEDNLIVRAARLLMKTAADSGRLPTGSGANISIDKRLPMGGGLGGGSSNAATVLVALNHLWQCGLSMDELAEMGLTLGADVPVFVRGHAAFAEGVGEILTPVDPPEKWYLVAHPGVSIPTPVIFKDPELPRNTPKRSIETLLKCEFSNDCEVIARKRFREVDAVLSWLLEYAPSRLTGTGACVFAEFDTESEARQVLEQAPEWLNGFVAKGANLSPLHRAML

T3: K. pneumoniae IspE (KpIspE) (Klebsiella pneumoniae, UniProt A6TAP2)
T3 sequence (A6TAP2 1-283): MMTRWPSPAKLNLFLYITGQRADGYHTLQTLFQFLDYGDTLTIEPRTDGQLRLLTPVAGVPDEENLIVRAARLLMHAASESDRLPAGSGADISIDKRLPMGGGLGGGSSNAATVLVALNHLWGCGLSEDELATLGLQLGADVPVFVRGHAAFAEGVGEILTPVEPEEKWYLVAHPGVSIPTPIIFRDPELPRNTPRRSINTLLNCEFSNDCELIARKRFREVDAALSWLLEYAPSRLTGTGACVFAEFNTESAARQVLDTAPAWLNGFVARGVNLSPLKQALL


Experiments:
[1] = target: T1, A. baumannii IspE (AbIspE); test: coupled spectrophotometric assay, dose-response; format: biochemical
E. coli IspE (EcIspE) = target: T2, E. coli IspE (EcIspE); test: coupled spectrophotometric assay, dose-response; format: biochemical
[2] = target: T3, K. pneumoniae IspE (KpIspE); test: coupled spectrophotometric assay, dose-response; format: biochemical
purified protein [3] = substrate: C[C@](O)(CO)[C@H](O)COP(=O)(O)OP(=O)(O)OC[C@H]1O[C@@H](n2ccc(N)nc2=O)[C@H](O)[C@@H]1O; test: purified protein; settings: room temperature; ATP 1 mM
purified protein [4] = substrate: Nc1ncnc2c1ncn2[C@@H]1O[C@H](COP(=O)(O)OP(=O)(O)OP(=O)(O)O)[C@@H](O)[C@H]1O; test: purified protein; settings: room temperature; CDP-ME 2 mM

Molecule	IC50 [1] [µM]	IC50 (E. coli IspE (EcIspE)) [µM]	IC50 [2] [µM]	Km (purified protein [3]) [µM]	Km (purified protein [4]) [µM]
Nc1nc(=O)n(C2CCCS2)cc1C#CCNS(=O)(=O)C1CC1 (racemic) [compound 1, (±)-1]	20 ± 3	13 ± 2.9	8 ± 1.5	–	–
Nc1nc(=O)[nH]cc1C#CCNS(=O)(=O)C1CC1 [compound 2, 2]	–	36.5 ± 1.6	44.3 ± 4.9	–	–
Nc1nc(=O)[nH]cc1C#CCNS(=O)(=O)C1CCCC1 [compound 3, 3]	–	10.3 ± 0.7	11.3 ± 0.6	–	–
Nc1nc(=O)[nH]cc1C#CCNS(=O)(=O)C1CCCCC1 [compound 4, 4]	–	6.2 ± 3.19	5.2 ± 1.3	–	–
E. coli IspE (EcIspE) (Escherichia coli K-12) (protein) MRTQWPSPAKLNLFLYITGQRADGYHTLQTLFQFLDYGDTISIELRDDGDIRLLTPVEGVEHEDNLIVRAARLLMKTAADSGRLPTGSGANISIDKRLPMGGGLGGGSSNAATVLVALNHLWQCGLSMDELAEMGLTLGADVPVFVRGHAAFAEGVGEILTPVDPPEKWYLVAHPGVSIPTPVIFKDPELPRNTPKRSIETLLKCEFSNDCEVIARKRFREVDAVLSWLLEYAPSRLTGTGACVFAEFDTESEARQVLEQAPEWLNGFVAKGANLSPLHRAML	–	–	–	200	420
K. pneumoniae IspE (KpIspE) (Klebsiella pneumoniae subsp. pneumoniae MGH 78578) (protein) MMTRWPSPAKLNLFLYITGQRADGYHTLQTLFQFLDYGDTLTIEPRTDGQLRLLTPVAGVPDEENLIVRAARLLMHAASESDRLPAGSGADISIDKRLPMGGGLGGGSSNAATVLVALNHLWGCGLSEDELATLGLQLGADVPVFVRGHAAFAEGVGEILTPVEPEEKWYLVAHPGVSIPTPIIFRDPELPRNTPRRSINTLLNCEFSNDCELIARKRFREVDAALSWLLEYAPSRLTGTGACVFAEFNTESAARQVLDTAPAWLNGFVARGVNLSPLKQALL	–	–	–	170	348
A. baumannii IspE (AbIspE) (Acinetobacter baumannii ACICU) (protein) MIRVPSPAKLNLFLHITGRRENGYHELQTIFQLIDLYDWMTFTPISEDEIQIEGLGEVQLEQNLIYRAAQILRPHAQNPCGLHIKIEKNIPMGAGLGGGSSNAATTLIVLNQLWQCGLTEEQLAQFGVKLGADVPIFIYGLNAWAEGIGEHLSFIDLDQKQFIVLKPDCFISTQLLFSQKTLTRDSKPTTFCAYQLEPSNFGNNFEPLARELYPEVEEAMQYLDQFGHAKLTGTGACVFAEVTDEMNVDDILKHAPCKAYLVHSLKESPLRHFKVAS	–	–	–	358	474
